System: 186277-243-T-J2-PDC complex spheroid growth
Assay: Anticancer human tumor 186277-243-T-J2-PDC patient-derived colon adenocarcinoma cell line growth inhibition [AhR]
Settings: for IC50: curve of first compound; for viability, T/C: stronger effect = lower value
Method in brief: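 Spheroids combined tumor cells with HUVEC endothelial cells and human MSCs as stroma. AhR antagonists were paired with standard or investigational drugs, each dosed in half-log steps down from near clinical Cmax, or from 10 microM where Cmax was unknown.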

[1] = second compound 0.1 µM, first compound 0.0316 µM
[2] = second compound 0.1 µM, first compound 0.1 µM
[3] = second compound 0.1 µM, first compound 0.316 µM
[4] = second compound 0.1 µM, first compound 1 µM
[5] = second compound 0.316 µM, first compound 0.0316 µM
[6] = second compound 0.316 µM, first compound 0.1 µM
[7] = second compound 0.316 µM, first compound 0.316 µM
[8] = second compound 0.316 µM, first compound 1 µM
[9] = second compound 1 µM, first compound 0.0316 µM
[10] = second compound 1 µM, first compound 0.1 µM
[11] = second compound 1 µM, first compound 0.316 µM
[12] = second compound 1 µM, first compound 1 µM
[13] = second compound 3.16 µM, first compound 0.0316 µM
[14] = second compound 3.16 µM, first compound 0.1 µM
[15] = second compound 3.16 µM, first compound 0.316 µM
[16] = second compound 3.16 µM, first compound 1 µM
[17] = second compound 10 µM, first compound 0.0316 µM
[18] = second compound 10 µM, first compound 0.1 µM
[19] = second compound 10 µM, first compound 0.316 µM
[20] = second compound 10 µM, first compound 1 µM
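Further: spheroids exposed to compounds for seven days before the viability read.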
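Wherever viability, T/C is given: luminescent signal used as a stand-in for viable cell amount; 100% = DMSO vehicle control wells.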

Row | IC50 (second compound 0.1 µM) [nM] | IC50 (second compound 0.316 µM) [nM] | IC50 (second compound 1 µM) [nM] | IC50 (second compound 3.16 µM) [nM] | IC50 (second compound 10 µM) [nM] | SMILES | viability, T/C [1] [%] | viability, T/C [2] [%] | viability, T/C [3] [%] | viability, T/C [4] [%] | viability, T/C [5] [%] | viability, T/C [6] [%] | viability, T/C [7] [%] | viability, T/C [8] [%] | viability, T/C [9] [%] | viability, T/C [10] [%] | viability, T/C [11] [%] | viability, T/C [12] [%] | viability, T/C [13] [%] | viability, T/C [14] [%] | viability, T/C [15] [%] | also measured
1 | 24.3 | 23.6 | 20.4 | 19.2 | 11.4 | CC1COCCN1c1cc(-c2ccnn2C)c2ccnc(-c3ccn[nH]3)c2n1 (stereo not given) + CC(CO)NC(=O)c1cc(-c2ccc(Cl)cc2)nn(-c2cnn(C)c2)c1=O | 38.1 | 7.53 | 3.44 | 2.42 | 37.5 | 6.69 | 2.84 | 2.25 | 34.2 | 6.17 | 3.4 | 2.51 | 24.2 | 6.02 | 3.47 | viability, T/C (second compound 0.1 µM, first compound 0.00316 µM): 100%; viability, T/C (second compound 0.1 µM, first compound 0.01 µM): 89.9%; viability, T/C (second compound 0.316 µM, first compound 0.00316 µM): 91%; viability, T/C (second compound 0.316 µM, first compound 0.01 µM): 86.3%; viability, T/C (second compound 1 µM, first compound 0.00316 µM): 103%; viability, T/C (second compound 1 µM, first compound 0.01 µM): 77%; viability, T/C (second compound 3.16 µM, first compound 0.00316 µM): 82.3%; viability, T/C (second compound 3.16 µM, first compound 0.01 µM): 84.8%; viability, T/C [16]: 2.6%; viability, T/C (second compound 10 µM, first compound 0.00316 µM): 79.3%; viability, T/C (second compound 10 µM, first compound 0.01 µM): 54.1%; viability, T/C [17]: 18.2%; viability, T/C [18]: 6.38%; viability, T/C [19]: 3.92%; viability, T/C [20]: 2.78%
2 | 885 | 899 | 801 | 734 | 611 | CC1COCCN1c1cc(C2(S(C)(=N)=O)CC2)nc(-c2ccnc3[nH]ccc23)n1 (stereo not given) + CC(CO)NC(=O)c1cc(-c2ccc(Cl)cc2)nn(-c2cnn(C)c2)c1=O | 99.5 | 97.3 | 86 | 47 | 97.9 | 101 | 87.3 | 47.1 | 109 | 92.8 | 89.8 | 41.1 | 91.1 | 90.9 | 76.9 | viability, T/C (second compound 0.1 µM, first compound 3.16 µM): 5.74%; viability, T/C (second compound 0.1 µM, first compound 10 µM): 3.37%; viability, T/C (second compound 0.316 µM, first compound 3.16 µM): 6.52%; viability, T/C (second compound 0.316 µM, first compound 10 µM): 3.04%; viability, T/C (second compound 1 µM, first compound 3.16 µM): 5.47%; viability, T/C (second compound 1 µM, first compound 10 µM): 2.94%; viability, T/C [16]: 41%; viability, T/C (second compound 3.16 µM, first compound 3.16 µM): 5.43%; viability, T/C (second compound 3.16 µM, first compound 10 µM): 2.86%; viability, T/C [17]: 76.3%; viability, T/C [18]: 75.9%; viability, T/C [19]: 71.8%; viability, T/C [20]: 33.7%; viability, T/C (second compound 10 µM, first compound 3.16 µM): 6.79%; viability, T/C (second compound 10 µM, first compound 10 µM): 3.4%

Reference: PubChem BioAssay AID1918991 (Molecular Pharmacology Branch, DTP, NCI, 2023)
